The source of these data is publication PMC3503449 (Breast cancer research and treatment, 2008).

This test deals with estrogen receptor α (ERα) (Homo sapiens, UniProt P03372). Briefly: ERE-luciferase reporter, antagonism of EXE-induced ER activity. It counts as cell-based.
Chain of estrogen receptor α (ERα) (P03372 whole entry): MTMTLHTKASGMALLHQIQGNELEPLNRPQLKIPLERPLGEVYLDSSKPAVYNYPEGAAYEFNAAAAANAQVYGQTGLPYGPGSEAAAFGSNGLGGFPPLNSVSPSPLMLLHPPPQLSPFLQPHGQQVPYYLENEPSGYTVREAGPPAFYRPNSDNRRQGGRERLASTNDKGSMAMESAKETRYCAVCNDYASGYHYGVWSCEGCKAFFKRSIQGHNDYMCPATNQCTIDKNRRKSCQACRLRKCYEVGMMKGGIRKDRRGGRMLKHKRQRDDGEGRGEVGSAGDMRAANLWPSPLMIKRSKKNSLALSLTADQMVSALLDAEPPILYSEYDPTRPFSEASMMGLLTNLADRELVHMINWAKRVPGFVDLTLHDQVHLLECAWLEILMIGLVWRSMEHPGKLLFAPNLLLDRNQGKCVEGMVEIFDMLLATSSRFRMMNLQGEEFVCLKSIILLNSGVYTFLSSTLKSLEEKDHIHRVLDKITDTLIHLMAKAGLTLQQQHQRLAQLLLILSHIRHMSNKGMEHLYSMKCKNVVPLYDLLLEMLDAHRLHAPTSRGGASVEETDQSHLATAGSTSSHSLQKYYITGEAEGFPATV

For `C[C@]12CC[C@@H]3c4ccc(O)cc4C[C@@H](CCCCCCCCC[S+]([O-])CCCC(F)(F)C(F)(F)F)[C@H]3[C@@H]1CC[C@@H]2O` (stereo partly shown) [ICI, ICI 182780], the “ERE-luciferase reporter, antagonism of EXE-induced ER activity” value is “ER activity was inhibited using the pure ER antagonist ICI”.
